Test results published in ChEMBL document CHEMBL4507264, “Data for DCP probe BAY-7598” (2021).

Assays:
[1] = molecular target: Serine/threonine-protein kinase 3 (Homo sapiens) (UniProt Q13188); conditions: Compound concentration 1000.0 nM
[2] = molecular target: Ribosomal protein S6 kinase beta-1 (Homo sapiens) (UniProt P23443); conditions: Compound concentration 1000.0 nM
[3] = molecular target: Cyclin-dependent kinase 13 (Homo sapiens) (UniProt Q14004); conditions: Compound concentration 1000.0 nM
[4] = molecular target: SRSF protein kinase 3 (Homo sapiens) (UniProt Q9UPE1); conditions: Compound concentration 1000.0 nM
[5] = molecular target: Serine/threonine-protein kinase 25 (Homo sapiens) (UniProt O00506); conditions: Compound concentration 1000.0 nM
Chain of Serine/threonine-protein kinase 25 (Homo sapiens) (O00506 whole entry, looked up): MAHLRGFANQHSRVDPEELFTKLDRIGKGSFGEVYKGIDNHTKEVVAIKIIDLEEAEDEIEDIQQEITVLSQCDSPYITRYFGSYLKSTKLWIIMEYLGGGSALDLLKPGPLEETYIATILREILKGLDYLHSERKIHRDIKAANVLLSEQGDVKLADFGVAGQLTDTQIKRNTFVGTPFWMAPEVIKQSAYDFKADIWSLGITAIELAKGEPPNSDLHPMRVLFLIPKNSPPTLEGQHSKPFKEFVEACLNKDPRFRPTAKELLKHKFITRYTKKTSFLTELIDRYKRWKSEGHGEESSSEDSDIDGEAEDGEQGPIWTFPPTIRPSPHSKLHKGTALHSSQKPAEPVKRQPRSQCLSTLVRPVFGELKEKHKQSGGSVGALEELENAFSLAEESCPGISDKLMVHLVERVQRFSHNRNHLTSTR

[6] = molecular target: Serine/threonine-protein kinase MRCK beta (Homo sapiens) (UniProt Q9Y5S2); conditions: Compound concentration 1000.0 nM
[7] = molecular target: Serine/threonine-protein kinase STK11 (Homo sapiens) (UniProt Q15831); conditions: Compound concentration 1000.0 nM
[8] = molecular target: Receptor-interacting serine/threonine-protein kinase 4 (Homo sapiens) (UniProt P57078); conditions: Compound concentration 1000.0 nM
[9] = molecular target: Serine/threonine-protein kinase SIK1 (Homo sapiens) (UniProt P57059); conditions: Compound concentration 1000.0 nM
[10] = molecular target: Receptor-interacting serine/threonine-protein kinase 1 (Homo sapiens) (UniProt Q13546); conditions: Compound concentration 1000.0 nM
[11] = molecular target: Mitotic checkpoint serine/threonine-protein kinase BUB1 (Homo sapiens) (UniProt O43683); conditions: Compound concentration 1000.0 nM
[12] = molecular target: MAP kinase-activated protein kinase 5 (Homo sapiens) (UniProt Q8IW41); conditions: Compound concentration 1000.0 nM
[13] = molecular target: Mitogen-activated protein kinase 3 (Homo sapiens) (UniProt P27361); conditions: Compound concentration 1000.0 nM
[14] = molecular target: Cyclin-dependent kinase 15 (Homo sapiens) (UniProt Q96Q40); conditions: Compound concentration 1000.0 nM
[15] = molecular target: Serine/threonine-protein kinase 33 (Homo sapiens) (UniProt Q9BYT3); conditions: Compound concentration 1000.0 nM
Chain of Serine/threonine-protein kinase 33 (Homo sapiens) (Q9BYT3 whole entry, looked up): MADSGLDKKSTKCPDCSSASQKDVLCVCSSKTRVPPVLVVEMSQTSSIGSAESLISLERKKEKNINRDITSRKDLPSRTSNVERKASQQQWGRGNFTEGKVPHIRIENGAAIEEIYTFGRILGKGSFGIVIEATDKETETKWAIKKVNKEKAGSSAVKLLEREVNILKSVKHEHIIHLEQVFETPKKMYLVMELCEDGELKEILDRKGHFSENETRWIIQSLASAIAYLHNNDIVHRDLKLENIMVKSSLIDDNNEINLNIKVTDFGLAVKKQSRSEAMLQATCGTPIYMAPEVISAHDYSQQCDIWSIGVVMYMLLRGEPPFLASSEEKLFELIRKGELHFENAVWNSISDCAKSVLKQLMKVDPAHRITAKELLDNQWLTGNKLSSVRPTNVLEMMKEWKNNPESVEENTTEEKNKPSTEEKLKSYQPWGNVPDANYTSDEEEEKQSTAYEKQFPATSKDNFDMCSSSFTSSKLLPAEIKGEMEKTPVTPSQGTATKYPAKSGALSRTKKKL

[16] = molecular target: Dual specificity mitogen-activated protein kinase kinase 1 (Homo sapiens) (UniProt Q02750); conditions: Compound concentration 1000.0 nM
[17] = molecular target: Dual serine/threonine and tyrosine protein kinase (Homo sapiens) (UniProt Q6XUX3); conditions: Compound concentration 1000.0 nM
Chain of Dual serine/threonine and tyrosine protein kinase (Homo sapiens) (Q6XUX3 whole entry): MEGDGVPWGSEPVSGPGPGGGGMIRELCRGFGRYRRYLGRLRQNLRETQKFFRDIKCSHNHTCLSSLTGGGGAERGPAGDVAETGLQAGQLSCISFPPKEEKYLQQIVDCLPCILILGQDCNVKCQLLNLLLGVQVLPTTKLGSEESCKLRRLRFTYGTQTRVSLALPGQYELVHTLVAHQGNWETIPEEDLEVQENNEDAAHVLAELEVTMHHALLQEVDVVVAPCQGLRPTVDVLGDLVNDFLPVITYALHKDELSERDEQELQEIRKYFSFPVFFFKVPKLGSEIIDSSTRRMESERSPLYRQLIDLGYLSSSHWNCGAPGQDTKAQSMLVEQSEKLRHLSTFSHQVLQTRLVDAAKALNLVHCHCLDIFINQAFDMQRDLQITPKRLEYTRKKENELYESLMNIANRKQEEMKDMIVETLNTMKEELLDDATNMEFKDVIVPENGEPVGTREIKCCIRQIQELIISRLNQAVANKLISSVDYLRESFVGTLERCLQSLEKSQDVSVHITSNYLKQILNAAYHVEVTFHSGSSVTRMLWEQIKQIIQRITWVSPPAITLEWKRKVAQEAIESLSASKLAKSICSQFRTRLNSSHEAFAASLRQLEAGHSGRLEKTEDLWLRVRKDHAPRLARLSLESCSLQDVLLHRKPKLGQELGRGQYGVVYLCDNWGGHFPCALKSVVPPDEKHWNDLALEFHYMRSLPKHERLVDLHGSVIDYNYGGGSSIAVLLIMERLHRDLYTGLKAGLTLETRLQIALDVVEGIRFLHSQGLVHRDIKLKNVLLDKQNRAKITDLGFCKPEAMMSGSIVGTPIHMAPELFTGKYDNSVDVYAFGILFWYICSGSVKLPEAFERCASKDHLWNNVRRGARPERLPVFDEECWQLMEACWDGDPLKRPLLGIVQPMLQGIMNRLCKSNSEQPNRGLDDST

[18] = tested on: Tyrosine-protein kinase ABL1 (Homo sapiens), P00519 [F317I]; conditions: Compound concentration 1000.0 nM
Chain of Tyrosine-protein kinase ABL1 (Homo sapiens), P00519 [F317I] (P00519 whole entry F317I): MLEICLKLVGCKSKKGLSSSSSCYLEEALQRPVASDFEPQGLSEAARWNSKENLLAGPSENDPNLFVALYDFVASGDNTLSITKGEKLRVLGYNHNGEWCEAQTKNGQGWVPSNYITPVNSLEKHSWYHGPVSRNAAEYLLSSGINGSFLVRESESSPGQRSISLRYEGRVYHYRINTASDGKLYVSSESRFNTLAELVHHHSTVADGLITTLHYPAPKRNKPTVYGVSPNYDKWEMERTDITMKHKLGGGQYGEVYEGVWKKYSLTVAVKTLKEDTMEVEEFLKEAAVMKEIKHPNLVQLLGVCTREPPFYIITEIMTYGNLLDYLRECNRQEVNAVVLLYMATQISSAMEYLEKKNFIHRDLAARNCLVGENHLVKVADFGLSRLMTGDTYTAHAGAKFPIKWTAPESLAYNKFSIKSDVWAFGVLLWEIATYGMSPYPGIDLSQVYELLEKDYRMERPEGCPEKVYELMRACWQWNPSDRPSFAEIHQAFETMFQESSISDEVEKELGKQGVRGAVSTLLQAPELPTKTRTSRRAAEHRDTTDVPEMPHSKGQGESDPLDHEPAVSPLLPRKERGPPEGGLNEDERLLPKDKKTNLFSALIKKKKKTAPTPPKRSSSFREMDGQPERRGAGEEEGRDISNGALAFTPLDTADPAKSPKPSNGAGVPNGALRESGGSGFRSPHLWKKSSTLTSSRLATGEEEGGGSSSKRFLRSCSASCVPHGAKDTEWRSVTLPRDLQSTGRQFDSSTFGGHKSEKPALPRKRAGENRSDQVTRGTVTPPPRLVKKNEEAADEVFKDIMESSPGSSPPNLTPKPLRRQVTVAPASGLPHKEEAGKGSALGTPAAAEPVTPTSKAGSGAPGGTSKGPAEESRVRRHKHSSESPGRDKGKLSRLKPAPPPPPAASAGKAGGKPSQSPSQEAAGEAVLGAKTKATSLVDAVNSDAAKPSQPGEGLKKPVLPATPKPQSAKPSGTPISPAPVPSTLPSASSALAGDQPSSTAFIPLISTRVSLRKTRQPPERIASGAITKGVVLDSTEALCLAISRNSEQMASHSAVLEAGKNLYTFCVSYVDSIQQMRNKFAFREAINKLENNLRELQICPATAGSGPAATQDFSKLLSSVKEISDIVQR

[19] = molecular target: Fibroblast growth factor receptor 1 (Homo sapiens) (UniProt P11362); conditions: Compound concentration 1000.0 nM
[20] = molecular target: Cyclin-dependent kinase 14 (Homo sapiens) (UniProt O94921); conditions: Compound concentration 1000.0 nM
[21] = molecular target: Serine/threonine-protein kinase Nek6 (Homo sapiens) (UniProt Q9HC98); conditions: Compound concentration 1000.0 nM
[22] = molecular target: Discoidin domain-containing receptor 2 (Homo sapiens) (UniProt Q16832); conditions: Compound concentration 1000.0 nM
Chain of Discoidin domain-containing receptor 2 (Homo sapiens) (Q16832 whole entry, the tested form may be a part): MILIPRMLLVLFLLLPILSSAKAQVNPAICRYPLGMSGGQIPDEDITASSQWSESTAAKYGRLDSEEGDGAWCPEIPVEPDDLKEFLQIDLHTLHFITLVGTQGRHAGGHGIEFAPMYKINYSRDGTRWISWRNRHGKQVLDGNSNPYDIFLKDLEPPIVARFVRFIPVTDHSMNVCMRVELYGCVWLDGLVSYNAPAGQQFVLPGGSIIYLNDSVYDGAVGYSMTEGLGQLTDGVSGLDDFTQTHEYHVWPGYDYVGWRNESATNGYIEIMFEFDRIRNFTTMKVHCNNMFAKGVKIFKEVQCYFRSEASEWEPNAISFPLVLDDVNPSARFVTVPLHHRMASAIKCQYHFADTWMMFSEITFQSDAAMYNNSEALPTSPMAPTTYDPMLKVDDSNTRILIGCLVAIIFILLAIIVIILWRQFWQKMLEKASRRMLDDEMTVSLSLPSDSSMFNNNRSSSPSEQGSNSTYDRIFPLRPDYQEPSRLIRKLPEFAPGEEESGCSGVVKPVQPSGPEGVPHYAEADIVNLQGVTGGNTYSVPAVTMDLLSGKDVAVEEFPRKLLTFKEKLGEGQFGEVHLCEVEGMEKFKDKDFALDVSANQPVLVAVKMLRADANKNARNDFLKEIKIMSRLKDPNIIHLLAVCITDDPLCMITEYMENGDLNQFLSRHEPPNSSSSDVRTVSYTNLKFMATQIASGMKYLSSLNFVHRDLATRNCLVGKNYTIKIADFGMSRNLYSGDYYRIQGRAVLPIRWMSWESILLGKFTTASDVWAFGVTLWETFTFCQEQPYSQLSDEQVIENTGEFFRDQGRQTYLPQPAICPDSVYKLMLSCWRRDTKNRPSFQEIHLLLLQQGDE

[23] = molecular target: Calcium/calmodulin-dependent protein kinase type II subunit beta (Homo sapiens) (UniProt Q13554); conditions: Compound concentration 1000.0 nM
[24] = molecular target: Glycogen synthase kinase-3 beta (Homo sapiens) (UniProt P49841); conditions: Compound concentration 1000.0 nM
[25] = molecular target: Serine/threonine-protein kinase SIK3 (Homo sapiens) (UniProt Q9Y2K2); conditions: Compound concentration 1000.0 nM
[26] = molecular target: Alpha-2C adrenergic receptor (Homo sapiens) (UniProt P18825); conditions: Compound concentration 10.0 uM
[27] = molecular target: Serine/threonine-protein kinase PLK3 (Homo sapiens) (UniProt Q9H4B4); conditions: Compound concentration 1000.0 nM
[28] = molecular target: Receptor tyrosine-protein kinase erbB-4 (Homo sapiens) (UniProt Q15303); conditions: Compound concentration 1000.0 nM
[29] = molecular target: Ephrin type-B receptor 4 (Homo sapiens) (UniProt P54760); conditions: Compound concentration 1000.0 nM
[30] = molecular target: BMP-2-inducible protein kinase (Homo sapiens) (UniProt Q9NSY1); conditions: Compound concentration 1000.0 nM
[31] = molecular target: Cyclin-dependent kinase 2 homolog (Plasmodium falciparum (isolate 3D7)) (UniProt P61075); conditions: Compound concentration 1000.0 nM
[32] = molecular target: Serine/threonine-protein kinase ICK (Homo sapiens) (UniProt Q9UPZ9); conditions: Compound concentration 1000.0 nM
[33] = molecular target: Casein kinase I isoform gamma-1 (Homo sapiens) (UniProt Q9HCP0); conditions: Compound concentration 1000.0 nM
Chain of Casein kinase I isoform gamma-1 (Homo sapiens) (Q9HCP0 whole entry, looked up, canonical isoform): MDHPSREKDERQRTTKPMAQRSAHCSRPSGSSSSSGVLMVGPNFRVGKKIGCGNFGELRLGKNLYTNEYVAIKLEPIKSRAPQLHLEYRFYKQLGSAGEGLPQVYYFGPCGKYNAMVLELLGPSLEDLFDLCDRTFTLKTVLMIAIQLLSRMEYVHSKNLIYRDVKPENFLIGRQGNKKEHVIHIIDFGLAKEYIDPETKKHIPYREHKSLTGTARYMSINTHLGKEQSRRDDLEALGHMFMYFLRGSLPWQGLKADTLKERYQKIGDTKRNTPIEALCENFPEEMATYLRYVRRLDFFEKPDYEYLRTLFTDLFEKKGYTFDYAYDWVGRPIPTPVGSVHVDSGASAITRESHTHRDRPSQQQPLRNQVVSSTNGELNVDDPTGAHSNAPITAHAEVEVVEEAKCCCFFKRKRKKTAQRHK

[34] = molecular target: Muscarinic acetylcholine receptor M4 (Homo sapiens) (UniProt P08173); conditions: Compound concentration 10.0 uM
[35] = molecular target: Casein kinase I isoform alpha-like (Homo sapiens) (UniProt Q8N752); conditions: Compound concentration 1000.0 nM
[36] = molecular target: Testis-specific serine/threonine-protein kinase 3 (Homo sapiens) (UniProt Q96PN8); conditions: Compound concentration 1000.0 nM
[37] = molecular target: Serine/threonine-protein kinase B-raf (Homo sapiens) (UniProt P15056); conditions: Compound concentration 1000.0 nM
Chain of Serine/threonine-protein kinase B-raf (Homo sapiens) (P15056 whole entry): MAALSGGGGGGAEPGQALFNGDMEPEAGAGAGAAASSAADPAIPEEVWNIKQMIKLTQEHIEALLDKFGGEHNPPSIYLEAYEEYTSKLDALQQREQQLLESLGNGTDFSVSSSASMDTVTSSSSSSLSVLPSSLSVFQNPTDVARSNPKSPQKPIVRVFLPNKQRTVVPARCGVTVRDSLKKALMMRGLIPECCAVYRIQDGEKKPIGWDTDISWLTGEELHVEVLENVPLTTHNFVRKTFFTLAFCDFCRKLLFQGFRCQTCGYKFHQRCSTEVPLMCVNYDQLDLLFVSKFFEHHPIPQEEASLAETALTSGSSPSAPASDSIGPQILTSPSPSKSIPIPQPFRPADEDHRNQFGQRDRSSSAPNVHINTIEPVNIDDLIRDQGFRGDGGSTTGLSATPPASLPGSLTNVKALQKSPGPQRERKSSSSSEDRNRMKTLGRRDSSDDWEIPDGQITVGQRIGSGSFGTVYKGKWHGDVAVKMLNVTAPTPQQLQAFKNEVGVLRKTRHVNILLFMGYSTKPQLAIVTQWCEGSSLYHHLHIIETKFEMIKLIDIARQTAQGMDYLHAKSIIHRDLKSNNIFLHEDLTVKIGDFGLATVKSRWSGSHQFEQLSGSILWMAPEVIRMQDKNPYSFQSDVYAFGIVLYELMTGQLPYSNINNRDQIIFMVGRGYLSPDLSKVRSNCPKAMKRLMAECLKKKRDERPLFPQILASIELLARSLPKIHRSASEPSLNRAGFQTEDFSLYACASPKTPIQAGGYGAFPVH

[38] = molecular target: Insulin-like growth factor 1 receptor (Homo sapiens) (UniProt P08069); conditions: Compound concentration 1000.0 nM
[39] = tested on: Phosphatidylinositol 4,5-bisphosphate 3-kinase catalytic subunit alpha isoform (Homo sapiens), P42336 [E545A]; conditions: Compound concentration 1000.0 nM
[40] = molecular target: Serine/threonine-protein kinase Sgk1 (Homo sapiens) (UniProt O00141); conditions: Compound concentration 1000.0 nM
[41] = molecular target: Serine/threonine-protein kinase Nek9 (Homo sapiens) (UniProt Q8TD19); conditions: Compound concentration 1000.0 nM
[42] = molecular target: Phosphatidylinositol 5-phosphate 4-kinase type-2 beta (Homo sapiens) (UniProt P78356); conditions: Compound concentration 1000.0 nM
[43] = molecular target: RAC-beta serine/threonine-protein kinase (Homo sapiens) (UniProt P31751); conditions: Compound concentration 1000.0 nM
[44] = molecular target: Serine/threonine-protein kinase pim-2 (Homo sapiens) (UniProt Q9P1W9); conditions: Compound concentration 1000.0 nM
[45] = molecular target: Mitogen-activated protein kinase kinase kinase 13 (Homo sapiens) (UniProt O43283); conditions: Compound concentration 1000.0 nM

O=C(O)[C@@H]1[C@@H](Cn2nnc3ccccc3c2=O)CC[C@H]1C(=O)c1ccc(OCCC2CCOCC2)cc1 [BAY-694]
inactive: residual activity [1] 100% | residual activity [2] 100% | residual activity [3] 92% | residual activity [4] 100% | residual activity [5] 87% | residual activity [6] 96% | residual activity [7] 94% | residual activity [8] 81% | residual activity [9] 91% | residual activity [10] 100% | residual activity [11] 73% | residual activity [12] 76% | residual activity [13] 100% | residual activity [14] 100% | residual activity [15] 69% | residual activity [16] 81% | residual activity [17] 84% | residual activity [18] 82% | residual activity [19] 100% | residual activity [20] 100% | residual activity [21] 100% | residual activity [22] 100% | residual activity [23] 100% | residual activity [24] 100% | residual activity [25] 84% | inhibition [26] 13.1% | residual activity [27] 87% | residual activity [28] 100% | residual activity [29] 100% | residual activity [30] 100% | residual activity [31] 100% | residual activity [32] 97% | residual activity [33] 99% | inhibition [34] -7.11% | residual activity [35] 100% | residual activity [36] 100% | residual activity [37] 100% | residual activity [38] 100% | residual activity [39] 100% | residual activity [40] 74% | residual activity [41] 100% | residual activity [42] 81% | residual activity [43] 100% | residual activity [44] 94% | residual activity [45] 70%

O=C(O)[C@H]1[C@H](Cn2nnc3ccccc3c2=O)CC[C@@H]1C(=O)c1ccc(OCCC2CCOCC2)cc1 [BAY-7598]
inactive: residual activity [1] 91% | residual activity [2] 100% | residual activity [3] 93% | residual activity [4] 84% | residual activity [5] 90% | residual activity [6] 100% | residual activity [7] 76% | residual activity [8] 80% | residual activity [9] 100% | residual activity [10] 84% | residual activity [11] 85% | residual activity [12] 99% | residual activity [13] 94% | residual activity [14] 100% | residual activity [15] 98% | residual activity [16] 100% | residual activity [17] 100% | residual activity [18] 86% | residual activity [19] 98% | residual activity [20] 100% | residual activity [21] 100% | residual activity [22] 100% | residual activity [23] 100% | residual activity [24] 100% | residual activity [25] 61% | inhibition [26] 8.3% | residual activity [27] 100% | residual activity [28] 89% | residual activity [29] 96% | residual activity [30] 86% | residual activity [31] 91% | residual activity [32] 98% | residual activity [33] 94% | inhibition [34] -5.24% | residual activity [35] 100% | residual activity [36] 85% | residual activity [37] 100% | residual activity [38] 100% | residual activity [39] 100% | residual activity [40] 100% | residual activity [41] 91% | residual activity [42] 84% | residual activity [43] 88% | residual activity [44] 96% | residual activity [45] 96%
